Experimental data: ChEMBL document CHEMBL5291721, “A preclinical secondary pharmacology resource illuminates target-adverse drug reaction associations of marketed drugs” (Nat Commun, 2023)

Tests used:
[1] = target: Delta-type opioid receptor (Homo sapiens, UniProt P41143)
[2] = target: Sodium-dependent serotonin transporter (Homo sapiens, UniProt P31645)
[3] = target: T1, Amine oxidase [flavin-containing] A (Homo sapiens, UniProt P21397); type: functional
T1 sequence (P21397 whole entry): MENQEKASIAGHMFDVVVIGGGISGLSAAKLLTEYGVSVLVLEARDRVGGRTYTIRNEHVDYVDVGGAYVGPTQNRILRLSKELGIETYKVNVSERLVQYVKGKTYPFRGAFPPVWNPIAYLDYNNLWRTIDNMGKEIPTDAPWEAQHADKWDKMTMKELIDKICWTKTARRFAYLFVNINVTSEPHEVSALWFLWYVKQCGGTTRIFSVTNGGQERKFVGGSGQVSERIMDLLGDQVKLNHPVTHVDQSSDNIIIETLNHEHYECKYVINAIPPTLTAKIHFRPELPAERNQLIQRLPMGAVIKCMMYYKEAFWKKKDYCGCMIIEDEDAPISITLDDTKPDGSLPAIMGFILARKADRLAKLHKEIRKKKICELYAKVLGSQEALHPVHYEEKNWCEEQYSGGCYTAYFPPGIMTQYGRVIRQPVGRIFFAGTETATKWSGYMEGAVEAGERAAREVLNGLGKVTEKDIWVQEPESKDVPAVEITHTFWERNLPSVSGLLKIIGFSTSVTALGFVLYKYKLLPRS

Vasopressin V2 receptor = Vasopressin V2 receptor (Homo sapiens, UniProt P30518)
Vasopressin V2 receptor, sequence (P30518 whole entry): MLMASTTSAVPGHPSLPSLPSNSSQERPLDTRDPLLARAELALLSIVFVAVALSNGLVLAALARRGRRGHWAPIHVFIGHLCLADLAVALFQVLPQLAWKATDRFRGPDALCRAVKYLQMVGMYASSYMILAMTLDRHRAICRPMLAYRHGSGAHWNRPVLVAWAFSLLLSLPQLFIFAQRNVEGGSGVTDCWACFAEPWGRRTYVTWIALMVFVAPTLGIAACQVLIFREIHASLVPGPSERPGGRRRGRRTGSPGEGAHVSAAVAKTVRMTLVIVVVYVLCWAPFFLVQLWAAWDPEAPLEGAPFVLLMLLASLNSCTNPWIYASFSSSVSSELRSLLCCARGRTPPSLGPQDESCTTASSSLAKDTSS

Thromboxane A2 receptor = target: T2, Thromboxane A2 receptor (Homo sapiens, UniProt P21731)
T2 sequence (P21731 whole entry): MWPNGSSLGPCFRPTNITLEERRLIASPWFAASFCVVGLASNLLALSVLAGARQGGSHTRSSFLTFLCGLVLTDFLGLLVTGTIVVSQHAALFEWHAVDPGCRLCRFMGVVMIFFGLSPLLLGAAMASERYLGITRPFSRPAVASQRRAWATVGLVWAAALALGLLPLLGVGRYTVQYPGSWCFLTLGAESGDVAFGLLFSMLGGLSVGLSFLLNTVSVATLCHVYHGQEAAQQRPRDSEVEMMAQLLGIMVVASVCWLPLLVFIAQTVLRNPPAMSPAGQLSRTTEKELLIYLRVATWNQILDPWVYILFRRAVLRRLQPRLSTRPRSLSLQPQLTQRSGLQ

[4] = target: Neuronal acetylcholine receptor subunit alpha-4 (Homo sapiens, UniProt P43681)
Neuronal acetylcholine receptor subunit alpha-4, sequence (P43681 whole entry): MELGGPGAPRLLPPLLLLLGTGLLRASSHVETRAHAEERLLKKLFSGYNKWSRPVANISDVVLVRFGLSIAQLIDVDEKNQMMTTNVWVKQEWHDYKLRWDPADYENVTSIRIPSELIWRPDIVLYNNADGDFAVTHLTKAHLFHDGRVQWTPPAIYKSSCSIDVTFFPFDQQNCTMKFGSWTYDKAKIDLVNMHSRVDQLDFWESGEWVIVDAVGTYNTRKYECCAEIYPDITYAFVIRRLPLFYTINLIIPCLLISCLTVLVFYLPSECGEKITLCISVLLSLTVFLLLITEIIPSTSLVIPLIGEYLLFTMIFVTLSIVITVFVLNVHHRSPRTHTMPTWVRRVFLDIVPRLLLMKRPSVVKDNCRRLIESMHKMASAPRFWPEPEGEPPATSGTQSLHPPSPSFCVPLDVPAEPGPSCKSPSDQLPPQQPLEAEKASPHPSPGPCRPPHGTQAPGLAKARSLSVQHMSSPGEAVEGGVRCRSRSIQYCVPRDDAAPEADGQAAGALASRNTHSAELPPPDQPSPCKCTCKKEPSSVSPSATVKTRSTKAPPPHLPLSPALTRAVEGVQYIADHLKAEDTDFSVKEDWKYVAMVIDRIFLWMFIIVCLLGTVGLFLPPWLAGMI

[5] = target: 5-hydroxytryptamine receptor 2B (Homo sapiens, UniProt P41595); type: functional, cell-based
5-hydroxytryptamine receptor 2B, sequence (P41595 whole entry): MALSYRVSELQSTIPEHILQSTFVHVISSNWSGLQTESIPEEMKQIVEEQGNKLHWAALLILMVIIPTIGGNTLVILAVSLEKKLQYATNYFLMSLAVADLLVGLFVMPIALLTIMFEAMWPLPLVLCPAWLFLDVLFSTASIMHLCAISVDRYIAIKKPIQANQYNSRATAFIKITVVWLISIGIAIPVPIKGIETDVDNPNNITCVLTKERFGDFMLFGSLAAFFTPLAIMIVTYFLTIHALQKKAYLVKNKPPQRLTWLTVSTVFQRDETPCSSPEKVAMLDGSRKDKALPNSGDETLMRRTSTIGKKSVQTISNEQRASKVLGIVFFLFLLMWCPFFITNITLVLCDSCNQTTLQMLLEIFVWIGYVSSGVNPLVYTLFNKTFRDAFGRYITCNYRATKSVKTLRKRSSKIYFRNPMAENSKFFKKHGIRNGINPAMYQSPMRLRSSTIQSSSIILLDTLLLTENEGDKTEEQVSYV

Progesterone receptor = target: T3, Progesterone receptor (Homo sapiens, UniProt P06401); type: functional
T3 sequence (P06401 whole entry): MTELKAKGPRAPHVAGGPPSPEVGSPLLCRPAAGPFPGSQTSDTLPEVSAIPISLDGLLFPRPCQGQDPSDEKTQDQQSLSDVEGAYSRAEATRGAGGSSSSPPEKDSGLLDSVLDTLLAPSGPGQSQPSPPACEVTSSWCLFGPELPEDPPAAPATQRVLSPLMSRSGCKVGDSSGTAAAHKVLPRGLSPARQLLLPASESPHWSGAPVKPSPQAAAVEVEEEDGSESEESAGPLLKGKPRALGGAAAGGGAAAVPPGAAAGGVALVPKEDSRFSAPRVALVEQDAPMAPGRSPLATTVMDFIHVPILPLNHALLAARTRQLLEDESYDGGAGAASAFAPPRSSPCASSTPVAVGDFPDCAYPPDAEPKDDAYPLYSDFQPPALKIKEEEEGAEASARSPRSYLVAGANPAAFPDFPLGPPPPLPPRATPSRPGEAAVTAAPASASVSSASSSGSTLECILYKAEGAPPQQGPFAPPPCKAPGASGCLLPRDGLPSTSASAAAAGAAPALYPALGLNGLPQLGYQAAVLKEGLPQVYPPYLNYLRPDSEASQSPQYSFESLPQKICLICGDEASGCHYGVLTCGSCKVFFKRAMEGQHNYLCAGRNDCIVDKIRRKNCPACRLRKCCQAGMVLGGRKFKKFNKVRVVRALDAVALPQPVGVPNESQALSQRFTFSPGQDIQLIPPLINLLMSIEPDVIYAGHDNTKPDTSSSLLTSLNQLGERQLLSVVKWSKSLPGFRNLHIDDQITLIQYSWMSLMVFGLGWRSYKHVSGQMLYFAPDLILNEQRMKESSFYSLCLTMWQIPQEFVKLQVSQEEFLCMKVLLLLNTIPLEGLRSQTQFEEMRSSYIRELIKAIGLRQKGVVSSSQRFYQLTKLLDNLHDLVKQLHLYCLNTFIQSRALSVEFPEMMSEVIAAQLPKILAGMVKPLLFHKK

[6] = target: T4, Neuropeptide Y receptor type 1 (Homo sapiens, UniProt P25929)
T4 sequence (P25929 whole entry): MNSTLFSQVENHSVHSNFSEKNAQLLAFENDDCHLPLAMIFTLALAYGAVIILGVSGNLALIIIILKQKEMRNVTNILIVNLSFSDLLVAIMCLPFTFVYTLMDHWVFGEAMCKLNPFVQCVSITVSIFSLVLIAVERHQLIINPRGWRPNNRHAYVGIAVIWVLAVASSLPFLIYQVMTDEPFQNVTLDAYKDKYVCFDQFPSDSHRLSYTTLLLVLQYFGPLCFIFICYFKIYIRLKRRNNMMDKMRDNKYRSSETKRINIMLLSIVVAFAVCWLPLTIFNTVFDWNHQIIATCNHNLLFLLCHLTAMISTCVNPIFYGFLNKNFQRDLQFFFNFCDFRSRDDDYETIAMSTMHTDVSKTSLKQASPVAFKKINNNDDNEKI

Cannabinoid receptor 1 = Cannabinoid receptor 1 (Homo sapiens, UniProt P21554); type: functional, cell-based
Cannabinoid receptor 1, sequence (P21554 whole entry): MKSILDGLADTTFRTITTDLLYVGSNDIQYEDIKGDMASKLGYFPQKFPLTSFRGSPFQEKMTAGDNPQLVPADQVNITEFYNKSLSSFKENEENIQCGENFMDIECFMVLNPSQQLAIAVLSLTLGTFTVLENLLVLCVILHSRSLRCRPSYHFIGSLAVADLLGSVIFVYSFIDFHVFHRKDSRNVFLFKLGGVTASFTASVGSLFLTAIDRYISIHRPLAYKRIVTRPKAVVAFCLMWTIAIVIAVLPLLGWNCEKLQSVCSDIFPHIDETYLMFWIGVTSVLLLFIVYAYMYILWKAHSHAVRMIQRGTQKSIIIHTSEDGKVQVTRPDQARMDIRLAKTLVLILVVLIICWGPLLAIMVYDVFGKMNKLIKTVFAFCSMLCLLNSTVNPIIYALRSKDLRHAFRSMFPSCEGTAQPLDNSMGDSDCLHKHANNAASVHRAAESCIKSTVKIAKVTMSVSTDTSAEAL
Note: assay procedure not described here.

Sodium-dependent serotonin transporter, sequence (P31645 whole entry): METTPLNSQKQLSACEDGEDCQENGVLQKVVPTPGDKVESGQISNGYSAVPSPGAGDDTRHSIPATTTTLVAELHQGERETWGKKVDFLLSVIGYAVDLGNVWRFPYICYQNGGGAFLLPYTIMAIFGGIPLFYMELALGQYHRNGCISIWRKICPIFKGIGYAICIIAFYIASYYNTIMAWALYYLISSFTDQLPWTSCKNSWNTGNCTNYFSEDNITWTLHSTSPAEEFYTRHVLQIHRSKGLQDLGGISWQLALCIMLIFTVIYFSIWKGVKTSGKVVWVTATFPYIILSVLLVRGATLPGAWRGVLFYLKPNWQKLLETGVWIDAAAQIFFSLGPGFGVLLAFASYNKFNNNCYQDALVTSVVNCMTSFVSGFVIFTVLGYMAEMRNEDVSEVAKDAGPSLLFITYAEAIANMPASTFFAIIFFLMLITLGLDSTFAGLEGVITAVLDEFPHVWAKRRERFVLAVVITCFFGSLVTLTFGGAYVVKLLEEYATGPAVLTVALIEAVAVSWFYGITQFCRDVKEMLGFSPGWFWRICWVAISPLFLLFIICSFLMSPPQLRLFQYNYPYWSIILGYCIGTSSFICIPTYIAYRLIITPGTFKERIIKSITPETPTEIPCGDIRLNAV
Delta-type opioid receptor, sequence (P41143 whole entry): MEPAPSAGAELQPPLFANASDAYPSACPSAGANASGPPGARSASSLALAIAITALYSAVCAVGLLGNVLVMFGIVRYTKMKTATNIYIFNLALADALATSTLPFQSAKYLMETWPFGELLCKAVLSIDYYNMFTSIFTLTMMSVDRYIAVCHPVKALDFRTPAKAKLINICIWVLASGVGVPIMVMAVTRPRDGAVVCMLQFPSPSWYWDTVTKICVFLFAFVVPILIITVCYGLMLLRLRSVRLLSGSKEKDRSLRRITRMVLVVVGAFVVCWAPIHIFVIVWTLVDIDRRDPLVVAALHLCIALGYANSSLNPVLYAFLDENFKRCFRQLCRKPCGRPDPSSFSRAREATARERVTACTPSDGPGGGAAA

| Structure (SMILES) | AC50 [1] | AC50 [2] | AC50 [3] | AC50 (Vasopressin V2 receptor) | AC50 (Thromboxane A2 receptor) | AC50 [4] | AC50 [5] | AC50 (Progesterone receptor) | AC50 [6] | AC50 (Cannabinoid receptor 1) |
| --- | --- | --- | --- | --- | --- | --- | --- | --- | --- | --- |
| CCC(=O)[C@@]1(C)[C@H](C)C[C@H]2[C@@H]3CCC4=CC(=O)C=C[C@]4(C)[C@H]3[C@@H](O)C[C@@]21C [RIMEXOLONE] | > 30 µM | > 10 µM | > 10 µM | > 10 µM | > 10 µM | > 10 µM | > 10 µM | 0.0032 µM | > 10 µM |  |
| CCN(CC)C(C)C(=O)c1ccccc1 (stereo not drawn) [DIETHYLPROPION] | > 30 µM | > 30 µM | > 10 µM | > 30 µM | > 30 µM | > 10 µM | > 10 µM |  | > 30 µM | > 30 µM |
| Cc1ccc(-c2ncc(Cl)cc2-c2ccc(S(C)(=O)=O)cc2)cn1 [ETORICOXIB] | > 10 µM | > 10 µM | > 10 µM | > 30 µM | > 10 µM | > 10 µM | > 10 µM |  | > 10 µM | > 30 µM |
| OCC(CO)N[C@H]1C[C@](O)(CO)[C@@H](O)[C@H](O)[C@H]1O [VOGLIBOSE] | > 30 µM | > 30 µM | > 30 µM | > 30 µM | > 30 µM | > 30 µM | > 30 µM | > 30 µM | > 30 µM |  |
| Cc1cnc(Nc2ccc(OCCN3CCCC3)cc2)nc1Nc1cccc(S(=O)(=O)NC(C)(C)C)c1 [FEDRATINIB] | > 30 µM | 0.732 µM | > 10 µM | > 30 µM | > 30 µM | > 10 µM | > 10 µM |  | > 30 µM |  |
| Nc1nc(Cl)nc2c1ncn2[C@@H]1O[C@H](CO)[C@@H](O)[C@@H]1F [CLOFARABINE] | > 30 µM | > 30 µM | > 30 µM | > 30 µM | > 30 µM | > 30 µM | > 30 µM | > 30 µM | > 30 µM |  |
| CC(C)(N)Cc1ccccc1 [PHENTERMINE] | > 30 µM | > 30 µM | > 10 µM | > 30 µM | > 30 µM | > 10 µM | > 10 µM |  | > 30 µM | > 30 µM |
| OCC(O)COc1ccc(Cl)cc1 (stereo not drawn) | > 30 µM | > 10 µM | > 10 µM | > 10 µM | > 10 µM | > 10 µM | > 10 µM | > 10 µM | > 10 µM |  |
| CN1C(=O)CN=C(c2ccccc2F)c2cc([N+](=O)[O-])ccc21 [FLUNITRAZEPAM] | > 10 µM | > 10 µM | > 10 µM | > 30 µM | > 30 µM | > 10 µM | > 10 µM |  | > 30 µM | > 30 µM |
| O=C(O[C@H]1C[N+]2(CCCOc3ccccc3)CCC1CC2)C(O)(c1cccs1)c1cccs1 [ACLIDINIUM BROMIDE] | > 30 µM | > 10 µM | > 10 µM | > 30 µM | > 30 µM | > 10 µM |  |  | > 30 µM |  |
| CCC1(CC)C(=O)NC(=O)N(C)C1=O [METHARBITAL] | > 30 µM | > 10 µM | > 10 µM | > 10 µM | > 10 µM | > 10 µM | > 10 µM | > 10 µM | > 10 µM |  |
| Oc1cc(O)c2c(c1)O[C@H](c1ccc(O)c(O)c1)[C@@H](O)C2 [CIANIDANOL] | > 30 µM | > 30 µM | > 10 µM | > 30 µM | > 30 µM | > 10 µM | > 10 µM |  | > 30 µM | > 30 µM |
| CC(C)CN(C[C@@H](O)[C@H](Cc1ccccc1)NC(=O)O[C@H]1CCOC1)S(=O)(=O)c1ccc(N)cc1 | > 30 µM |  | > 10 µM | > 30 µM | > 30 µM | > 30 µM | > 10 µM | > 10 µM | > 30 µM | 12 µM |
| CCCCCCOC(=O)NC(=N)c1ccc(NCc2nc3cc(C(=O)N(CCC(=O)OCC)c4ccccn4)ccc3n2C)cc1 [DABIGATRAN ETEXILATE] | > 30 µM | > 30 µM | > 30 µM | > 30 µM |  | > 30 µM | > 30 µM | > 30 µM | > 30 µM |  |
| CNCCc1ccccn1 [BETAHISTINE] | > 30 µM |  | > 30 µM | > 30 µM | > 30 µM | > 30 µM | > 30 µM | > 30 µM | > 30 µM | > 30 µM |
| CC(=O)[C@@]1(O)CC[C@H]2[C@@H]3C[C@H](C)C4=CC(=O)C=C[C@]4(C)[C@@]3(F)[C@@H](O)C[C@@]21C [FLUOROMETHOLONE] | > 30 µM |  | > 10 µM | > 10 µM | > 10 µM | > 10 µM | > 10 µM | 0.053 µM | > 10 µM | > 30 µM |
| CCN(C(C)=O)c1cccc(-c2ccnc3c(C#N)cnn23)c1 [ZALEPLON] | > 30 µM |  | > 10 µM | > 30 µM | > 30 µM | > 30 µM | > 10 µM | > 30 µM | > 30 µM | > 30 µM |
| CC1NCCOC1c1ccccc1 (stereo not drawn) [PHENMETRAZINE] | > 30 µM | > 30 µM | > 10 µM | > 30 µM | > 30 µM | > 10 µM | > 10 µM |  | > 30 µM | > 30 µM |
| COc1ccc2c3c1O[C@H]1C(=O)CC[C@H]4[C@@H](C2)N(C)CC[C@]314 [HYDROCODONE] |  | > 10 µM | > 10 µM | > 30 µM | > 30 µM | > 10 µM | > 10 µM |  | > 30 µM |  |
| CCCCOC(=O)c1ccc(N)cc1 [BUTAMBEN] | > 30 µM |  | > 30 µM | > 30 µM | > 30 µM | > 30 µM | > 30 µM | > 30 µM | > 30 µM | > 30 µM |
| COc1nc(C)nc(Cl)c1N=C1NCCN1 [MOXONIDINE] | > 30 µM |  | > 30 µM | > 30 µM | > 30 µM | > 30 µM | > 30 µM | > 30 µM | > 30 µM | > 30 µM |
